Measured values as given in publication PMC3742231 (International Journal of Molecular Sciences, 2013).
pIC50: −log10 of the molar value. Where two headings read alike, the source gives them in different places.

Key:
[1] = repeated oral 60-mg dosing of ospemifene, no reference given; read-out: clinical Cmax; cited from earlier work
CYP3A4 = CYP3A4 (Homo sapiens, UniProt P08684); experiment: biochemical; conditions: human liver microsomes
Method: (§1) Human liver microsomes were prepared and pooled from ten human livers (HL20–24,28–32) as previously described. Human liver samples were obtained from the University Hospital of Oulu as surplus tissue from cadaver kidney transplant donors. The collection of surplus tissue was approved by the Ethics Committee of the Medical Faculty of the University of Oulu, Finland. All donors were Caucasians ranging in age from 21 to 62 years; four were female and six were male. Detailed information on each donor has been published previously. Protein concentrations were measured using the Bradford method.
(§2) In vitro inhibition of CYP isoforms was first assessed using the N-in-one approach (also called the cocktail approach). CYP-selective substrates and reactions are listed in Table 1; concentrations were roughly at or below the respective Michaelis-Menten coefficients. […] A Micromass LCT time-of-flight high-resolution mass spectrometer (Micromass Ltd., Manchester, UK) equipped with a Z-spray electrospray ionization source was used for the monitoring of CYP-selective reactions. Integrated mass chromatogram peak areas were normalized versus internal standards before comparing metabolites in different preparations. More details of the assay are available in previous publications.

CYP1A2 = molecular target: T1, CYP1A2 (Homo sapiens, UniProt P05177); experiment: biochemical; conditions: read-out: IC50, Melatonin 6-hydroxylation; human liver microsomes, probe 4 μM
T1 sequence (P05177 1-516): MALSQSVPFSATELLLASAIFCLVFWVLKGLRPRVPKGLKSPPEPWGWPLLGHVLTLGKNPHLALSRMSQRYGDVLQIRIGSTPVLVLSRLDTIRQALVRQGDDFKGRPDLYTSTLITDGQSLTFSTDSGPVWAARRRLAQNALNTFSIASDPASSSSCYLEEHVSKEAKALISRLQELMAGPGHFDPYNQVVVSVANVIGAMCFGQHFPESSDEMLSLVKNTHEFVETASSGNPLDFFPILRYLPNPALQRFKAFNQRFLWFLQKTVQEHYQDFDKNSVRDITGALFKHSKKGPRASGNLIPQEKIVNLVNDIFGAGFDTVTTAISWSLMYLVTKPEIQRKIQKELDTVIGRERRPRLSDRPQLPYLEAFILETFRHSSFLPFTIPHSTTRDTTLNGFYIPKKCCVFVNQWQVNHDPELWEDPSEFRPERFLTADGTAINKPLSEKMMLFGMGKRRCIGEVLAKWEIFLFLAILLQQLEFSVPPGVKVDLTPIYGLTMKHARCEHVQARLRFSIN
Method: as §1, §2

CYP2C19 = CYP2C19 (Homo sapiens, UniProt P33261); experiment: biochemical; conditions: human liver microsomes, probe 2 μM
CYP2C19, sequence (P33261 whole entry): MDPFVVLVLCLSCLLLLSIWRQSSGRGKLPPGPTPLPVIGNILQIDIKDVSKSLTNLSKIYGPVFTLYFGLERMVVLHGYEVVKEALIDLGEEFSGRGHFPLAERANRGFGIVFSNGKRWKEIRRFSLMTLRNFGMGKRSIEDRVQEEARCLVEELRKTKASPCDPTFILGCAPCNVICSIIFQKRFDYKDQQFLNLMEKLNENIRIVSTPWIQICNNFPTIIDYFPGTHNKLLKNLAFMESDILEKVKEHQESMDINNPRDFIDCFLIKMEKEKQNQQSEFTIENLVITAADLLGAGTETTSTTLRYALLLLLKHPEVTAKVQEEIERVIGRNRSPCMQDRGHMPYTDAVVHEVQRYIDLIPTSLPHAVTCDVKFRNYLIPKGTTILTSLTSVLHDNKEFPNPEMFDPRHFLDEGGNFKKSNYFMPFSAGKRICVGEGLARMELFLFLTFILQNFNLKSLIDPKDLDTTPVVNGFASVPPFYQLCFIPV
Method: as §1, §2
(§3) Dixon, Lineweaver-Burk, Hanes, and Hofstee plots were used for the analysis of the type of inhibition.

CYP2B6 = molecular target: T2, CYP2B6 (Homo sapiens, UniProt P20813); experiment: biochemical; conditions: read-out: IC50, Bupropion hydroxylation; human liver microsomes, probe 1 μM
T2 sequence (P20813 1-491): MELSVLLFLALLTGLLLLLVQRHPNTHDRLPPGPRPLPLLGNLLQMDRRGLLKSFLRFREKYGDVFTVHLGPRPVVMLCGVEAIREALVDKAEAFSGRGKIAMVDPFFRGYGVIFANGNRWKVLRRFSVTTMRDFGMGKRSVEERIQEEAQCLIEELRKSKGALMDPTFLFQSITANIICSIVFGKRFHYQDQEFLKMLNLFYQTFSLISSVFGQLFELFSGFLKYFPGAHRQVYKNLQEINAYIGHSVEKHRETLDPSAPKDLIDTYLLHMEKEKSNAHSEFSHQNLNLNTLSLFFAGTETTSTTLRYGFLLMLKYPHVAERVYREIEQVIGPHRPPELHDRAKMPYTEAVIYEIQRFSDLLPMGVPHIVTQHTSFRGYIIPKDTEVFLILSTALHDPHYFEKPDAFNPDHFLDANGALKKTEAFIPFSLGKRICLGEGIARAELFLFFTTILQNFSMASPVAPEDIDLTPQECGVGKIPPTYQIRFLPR
Method: as §1, §2, §3

CYP2A6 = molecular target: T3, CYP2A6 (Homo sapiens, UniProt P11509); experiment: N-in-one CYP inhibition assay in human liver microsomes; conditions: read-out: IC50, Coumarin 7-hydroxylation; human liver microsomes, probe 2 μM
T3 sequence (P11509 1-494): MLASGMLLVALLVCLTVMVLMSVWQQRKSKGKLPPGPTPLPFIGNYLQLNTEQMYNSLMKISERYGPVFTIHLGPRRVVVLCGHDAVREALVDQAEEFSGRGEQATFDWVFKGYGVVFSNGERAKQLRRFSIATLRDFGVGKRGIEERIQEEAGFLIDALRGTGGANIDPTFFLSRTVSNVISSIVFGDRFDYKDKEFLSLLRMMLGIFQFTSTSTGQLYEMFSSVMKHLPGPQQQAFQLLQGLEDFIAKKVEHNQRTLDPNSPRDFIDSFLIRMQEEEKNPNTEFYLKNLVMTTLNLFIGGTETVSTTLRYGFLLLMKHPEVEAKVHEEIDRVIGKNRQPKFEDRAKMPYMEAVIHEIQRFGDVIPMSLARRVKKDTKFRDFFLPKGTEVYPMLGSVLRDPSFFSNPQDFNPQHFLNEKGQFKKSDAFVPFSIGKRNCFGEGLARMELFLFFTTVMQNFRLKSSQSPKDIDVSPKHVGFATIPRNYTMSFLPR
Method: as §1, §2

CYP2E1 = CYP2E1 (Homo sapiens, UniProt P05181); experiment: as above; conditions: read-out: IC50, Chlorzoxazone 6-hydroxylation; human liver microsomes, probe 6 μM
CYP2E1, sequence (P05181 whole entry): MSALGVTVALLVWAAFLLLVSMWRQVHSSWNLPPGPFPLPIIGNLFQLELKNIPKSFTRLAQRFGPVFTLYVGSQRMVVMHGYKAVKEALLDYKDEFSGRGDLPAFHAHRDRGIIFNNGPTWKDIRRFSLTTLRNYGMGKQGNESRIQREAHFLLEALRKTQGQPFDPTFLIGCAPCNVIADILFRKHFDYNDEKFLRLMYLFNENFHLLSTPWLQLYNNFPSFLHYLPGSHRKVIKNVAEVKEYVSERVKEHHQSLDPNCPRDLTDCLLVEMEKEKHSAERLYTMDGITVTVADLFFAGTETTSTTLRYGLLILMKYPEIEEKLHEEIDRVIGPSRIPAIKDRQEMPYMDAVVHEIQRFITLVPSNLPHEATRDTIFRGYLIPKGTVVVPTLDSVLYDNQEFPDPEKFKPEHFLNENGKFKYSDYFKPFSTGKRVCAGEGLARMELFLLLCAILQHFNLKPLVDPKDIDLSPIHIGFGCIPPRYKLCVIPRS
Method: as §1, §2

[2] = system: CYP-mediated enzyme activities; experiment: N-in-one CYP inhibition assay, summary for all other CYP-mediated activities; type: in vitro ADME; conditions: human liver microsomes; CYPs other than those named in the paragraph
[3] = metabolites of ospemifene; cited from earlier work
CYP2C9 = CYP2C9 (Homo sapiens, UniProt P11712); conditions: read-out: IC50, Tolbutamide methylhydroxylation; human liver microsomes, probe 4 μM
CYP2C9, sequence (P11712 whole entry): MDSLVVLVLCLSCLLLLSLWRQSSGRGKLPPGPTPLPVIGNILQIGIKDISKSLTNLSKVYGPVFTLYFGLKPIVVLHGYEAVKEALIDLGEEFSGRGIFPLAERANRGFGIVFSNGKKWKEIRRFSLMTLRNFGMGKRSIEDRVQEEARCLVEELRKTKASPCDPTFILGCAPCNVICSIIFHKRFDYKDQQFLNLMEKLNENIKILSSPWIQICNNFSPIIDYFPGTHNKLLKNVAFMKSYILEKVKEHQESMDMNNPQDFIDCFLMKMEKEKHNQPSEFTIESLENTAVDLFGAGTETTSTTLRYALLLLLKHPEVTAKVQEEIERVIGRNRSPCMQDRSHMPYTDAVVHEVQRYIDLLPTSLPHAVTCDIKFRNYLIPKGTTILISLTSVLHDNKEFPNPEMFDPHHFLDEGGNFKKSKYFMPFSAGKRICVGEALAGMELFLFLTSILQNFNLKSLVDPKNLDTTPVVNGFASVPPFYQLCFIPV
Method: as §1, §2, §3

CYP2C8 = molecular target: T4, CYP2C8 (Homo sapiens, UniProt P10632); experiment: N-in-one CYP inhibition assay in human liver microsomes; type of inhibition; conditions: read-out: IC50, Amodiaquine desethylation; human liver microsomes, probe 2 μM
T4 sequence (P10632 1-490): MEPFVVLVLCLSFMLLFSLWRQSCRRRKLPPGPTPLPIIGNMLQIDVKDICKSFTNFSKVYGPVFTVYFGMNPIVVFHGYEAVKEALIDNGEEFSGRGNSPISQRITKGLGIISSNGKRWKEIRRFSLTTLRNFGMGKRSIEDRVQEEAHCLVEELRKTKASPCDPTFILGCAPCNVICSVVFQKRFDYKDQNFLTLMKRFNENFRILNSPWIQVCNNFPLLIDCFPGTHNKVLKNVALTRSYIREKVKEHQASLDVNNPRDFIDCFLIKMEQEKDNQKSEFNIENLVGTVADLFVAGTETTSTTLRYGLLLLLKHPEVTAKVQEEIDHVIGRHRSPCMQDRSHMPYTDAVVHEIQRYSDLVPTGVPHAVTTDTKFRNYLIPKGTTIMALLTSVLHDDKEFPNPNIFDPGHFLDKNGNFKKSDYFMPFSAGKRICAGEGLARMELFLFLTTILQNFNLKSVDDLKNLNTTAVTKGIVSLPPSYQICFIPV
Method: as §1, §2, §3

CYP2D6 = CYP2D6 (Homo sapiens, UniProt P10635); experiment: as above; conditions: read-out: IC50, Dextromethorphan O-demethylation; human liver microsomes, probe 0.2 μM
CYP2D6, sequence (P10635 whole entry): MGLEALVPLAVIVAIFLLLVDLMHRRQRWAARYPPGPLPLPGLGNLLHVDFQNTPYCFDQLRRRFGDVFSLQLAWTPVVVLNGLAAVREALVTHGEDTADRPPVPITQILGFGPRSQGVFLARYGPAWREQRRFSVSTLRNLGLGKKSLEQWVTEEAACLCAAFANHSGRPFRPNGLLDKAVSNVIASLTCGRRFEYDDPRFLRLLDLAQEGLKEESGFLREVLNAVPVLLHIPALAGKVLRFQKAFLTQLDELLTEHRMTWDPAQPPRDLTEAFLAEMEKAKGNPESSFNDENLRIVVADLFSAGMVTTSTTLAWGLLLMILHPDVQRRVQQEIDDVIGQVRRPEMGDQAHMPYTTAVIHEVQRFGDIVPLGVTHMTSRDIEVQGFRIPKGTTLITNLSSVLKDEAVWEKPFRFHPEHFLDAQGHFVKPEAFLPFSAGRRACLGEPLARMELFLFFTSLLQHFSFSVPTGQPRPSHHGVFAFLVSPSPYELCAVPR
Method: as §1, §2, §3

[4] = Study 2: effect of ospemifene on bupropion pharmacokinetics; conditions: for CL/F, mean (CV%) / t1/2, mean (CV%) / AUCt, mean (CV%) / Cmax, mean (CV%) / tmax, median (range) / AUC∞, mean (CV%): 150 mg bupropion; for AUCt, mean (CV%): 0-96 h; for AUC∞, mean (CV%): N = 16
Description: (§4) Studies 1 and 2 were open-label, two-period, single-center, Phase 1, balanced, crossover studies in healthy postmenopausal women. […] Study 3 was a Phase 1, open-label, single-center, balanced, two-period, crossover study in healthy postmenopausal women who were not homozygous for the CYP2C19*2 genotype (CYP2C19*2 indicates the CYP2C19 variant that is associated with reduced activity). In each study, equal numbers of subjects were assigned to the two different treatment sequences.
(§5) The study periods were separated by ≥14 days.
(§6) With the exception of tmax, which was analyzed using the nonparametric Wilcoxon’s test, pharmacokinetic parameters were analyzed after log-transformation using analysis of variance (ANOVA), with sequence, period, and treatment as fixed effects.

[5] = Overall safety in the three clinical studies; type: in vivo, human; conditions: healthy postmenopausal women, with and without ospemifene
Description: All experiments with human subjects were based on voluntary informed consent and the clinical study protocols had appropriate ethical and regulatory approval. Subjects were asked to immediately report any significant adverse events (AEs) that occurred during the study; minor AEs were reported at clinic visits. AEs were coded and classified according to the Medical Dictionary for Regulatory Activities.

[6] = female, human, in vivo, 150 mg
Description: as §4, §5, §6

clinical = conditions: female, human, in vivo
Description: as §4, §5, §6

[7] = Study 3: effect of ospemifene on omeprazole pharmacokinetics (metabolic ratios)
Description: as §4
The study periods were separated by ≥14 days. In both study periods, blood samples for determination of plasma omeprazole, 5-hydroxyomeprazole, and omeprazole sulfone concentrations were collected before and at 1, 2, 3, 4, 6, and 8 h after omeprazole administration.
In Study 3, concentrations of omeprazole, 5-hydroxyomeprazole, and omeprazole sulfone were determined using a validated LC-MS/MS method. Pharmacokinetic parameters were analyzed after log-transformation using ANOVA, with sequence, period, and treatment as fixed effects. Primary pharmacokinetic parameters included the metabolic ratios of omeprazole/5-hydroxyomeprazole and omeprazole/omeprazole sulfone, based on plasma concentrations at 3 h, which reflected CYP2C19 and CYP3A4 activities, respectively.

[8] = 10 mg racemic warfarin; for AUC∞, mean (CV%): N = 16
Description: as §4
The study periods were separated by ≥3 weeks.
as §6

[9] = cited from earlier work

CYP3A4, sequence (P08684 whole entry): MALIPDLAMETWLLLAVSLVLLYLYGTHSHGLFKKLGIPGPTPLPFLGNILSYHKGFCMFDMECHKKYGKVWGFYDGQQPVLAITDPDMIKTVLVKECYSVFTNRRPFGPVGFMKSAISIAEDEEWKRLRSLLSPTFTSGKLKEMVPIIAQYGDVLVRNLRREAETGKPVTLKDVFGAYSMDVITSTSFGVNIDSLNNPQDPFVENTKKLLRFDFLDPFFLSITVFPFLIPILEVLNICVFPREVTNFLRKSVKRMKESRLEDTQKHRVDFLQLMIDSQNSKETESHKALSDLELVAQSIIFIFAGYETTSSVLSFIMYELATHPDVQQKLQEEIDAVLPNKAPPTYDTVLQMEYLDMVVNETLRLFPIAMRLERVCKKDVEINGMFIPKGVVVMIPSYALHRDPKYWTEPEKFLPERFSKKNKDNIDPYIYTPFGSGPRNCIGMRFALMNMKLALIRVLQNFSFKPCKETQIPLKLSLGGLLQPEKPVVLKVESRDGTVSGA

OCCOc1ccc(/C(=C(/CCCl)c2ccccc2)c2ccc(O)cc2)cc1 [4-Hydroxy-ospemifene, 4-hydroxyospemifene]
Cmax [1]: ~300 nM | pIC50 (CYP3A4; read-out: IC50, Midazolam 1′-hydroxylation, probe 0.4 μM): < 4.00 | pIC50 (CYP3A4; read-out: IC50, Omeprazole 3-hydroxylation, probe 2 μM): 4.30 | pIC50 (CYP3A4; read-out: IC50, Omeprazole sulfoxidation, probe 2 μM): 4.44 | pIC50 (CYP3A4; read-out: IC50, Testosterone 6β-hydroxylation, probe 1 μM): < 4.00 | pIC50 (CYP1A2): < 4.00 | pIC50 (CYP2C19; read-out: IC50, Omeprazole 5-hydroxylation): 4.82 | pIC50 (CYP2C19; read-out: IC50, Omeprazole demethylation): 4.71 | pIC50 (CYP2B6): 4.58 | pIC50 (CYP2A6): < 4.00 | pIC50 (CYP2E1): < 4.00 | pIC50 [2]: < 4.60 | share of the total metabolites [3]: roughly 70% | pIC50 (CYP2C9): 5.96 | pIC50 (CYP2C8): 4.56 | pIC50 (CYP2D6): 4.59

CC(NC(C)(C)C)C(=O)c1cccc(Cl)c1 (centres unmarked) [Bupropion, bupropion]
CL/F, mean (CV%) ([4]; OSP (+)): 230 (38.1) mL/h | t1/2, mean (CV%) ([4]; OSP (+)): 29.5 (26.7) h | CL/F, mean (CV%) ([4]; OSP (−)): 185 (38.1) mL/h | Tolerability [5]: well tolerated | AUCt, mean (CV%) [6]: 0.85 (33.7) μg h/mL | AUC∞, mean (CV%) [6]: 0.90 (32.3) μg h/mL | Tmax (clinical): 3 h | Cmax (clinical; 150 mg): 74.9 ng/mL | Tmax (clinical; 150 mg): 3.5 h | half-life (clinical; 150 mg): 30.8 h

C[C@H]1NC(C)(C)CO[C@]1(O)c1cccc(Cl)c1 [Hydroxybupropion, hydroxybupropion]
AUCt, mean (CV%) ([4]; OSP (+)): 14.5 (31.7) μg h/mL | AUCt, mean (CV%) ([4]; OSP (−)): 14.3 (28.1) μg h/mL | Cmax, mean (CV%) ([4]; OSP (+)): 462 (29.0) ng/mL | t1/2, mean (CV%) ([4]; OSP (+)): 21.2 (18.0) h | tmax, median (range) ([4]; OSP (+)): 6.1 (5–8) h | AUC∞, mean (CV%) ([4]; OSP (+) 60 mg once daily): 15.2 (32.4) μg h/mL | Cmax, mean (CV%) ([4]; OSP (−)): 398 (30.6) ng/mL | t1/2, mean (CV%) ([4]; OSP (−)): 26.7 (18.8) h | tmax, median (range) ([4]; OSP (−)): 6.0 (5–24) h | AUC∞, mean (CV%) ([4]; OSP (−)): 15.5 (29.4) μg h/mL | Ratio of geometric least square means of AUC∞ (90% CI) ([4]; with and without ospemifene pretreatment): 0.977 (0.921–1.036)

COc1ccc2[nH]c([S+]([O-])Cc3ncc(C)c(OC)c3C)nc2c1 (centres unmarked) [Omeprazole, omeprazole]
Tolerability [5]: well tolerated | Ratio ospemifene (+)/ospemifene (−) of metabolic ratio Omeprazole/5-hydroxyomeprazole (90% CI) ([7]; 3 h conc.): 0.97 (0.77–1.22) | Ratio ospemifene (+)/ospemifene (−) of metabolic ratio Omeprazole/Omeprazole sulfone (90% CI) ([7]; 3 h conc.): 0.97 (0.67–1.41) | Ratio ospemifene (+)/ospemifene (−) of metabolic ratio Omeprazole/5-hydroxyomeprazole (90% CI) ([7]; AUCt 0 to 8 h): 0.97 (0.88–1.08) | Ratio ospemifene (+)/ospemifene (−) of metabolic ratio Omeprazole/Omeprazole sulfone (90% CI) ([7]; AUCt 0 to 8 h): 1.00 (0.88–1.15)

CC(=O)C[C@H](c1ccccc1)c1c(O)c2ccccc2oc1=O [R-Warfarin]
Cmax, mean (CV%) ([8]; OSP (+)): 538 (15.4) ng/mL | tmax, median (range) ([8]; OSP (+)): 4 (2–8) h | AUC∞, mean (CV%) ([8]; OSP (+) 60 mg once daily): 32.8 (23.1) μg h/mL | Cmax, mean (CV%) ([8]; OSP (−)): 518 (15.2) ng/mL | tmax, median (range) ([8]; OSP (−)): 4 (2–6) h | AUC∞, mean (CV%) ([8]; OSP (−)): 31.3 (21.7) μg h/mL

O=C(c1ccc(OCCN2CCCCC2)cc1)c1c(-c2ccc(O)cc2)sc2cc(O)ccc12 [Raloxifene]
Decrease of the prothrombin time of patients on warfarin [9]: 10%

CC(=O)C[C@@H](c1ccccc1)c1c(O)c2ccccc2oc1=O [S-Warfarin, S-warfarin]
Cmax, mean (CV%) ([8]; OSP (+)): 513 (13.3) ng/mL | tmax, median (range) ([8]; OSP (+)): 4 (2–8) h | AUC∞, mean (CV%) ([8]; OSP (+) 60 mg once daily): 19.2 (30.2) μg h/mL | Cmax, mean (CV%) ([8]; OSP (−)): 497 (14.5) ng/mL | tmax, median (range) ([8]; OSP (−)): 4 (2–6) h | AUC∞, mean (CV%) ([8]; OSP (−)): 18.5 (29.9) μg h/mL

CC(=O)CC(c1ccccc1)c1c(O)c2ccccc2oc1=O (centres unmarked) [warfarin]
Tolerability [5]: well tolerated
